Experimental data reported in US20200216432A1, “SULFONAMIDE DERIVATIVES AS STAT3 INHIBITORS FOR THE TREATMENT OF PROLIFERATIVE DISEASES” (King's College London, priority 2017, published 2020).
Entries after “also recorded” stand apart in the source; their conditions may differ.

Assays:
[1] = General toxicity and weight of treated xenograft mice; type: in vivo
From the text: (§1) MDA-MB231 cells were mixed with matrigel (Geltrex, Gibco) before implantation into mice. For tumour generation, 5 million cells in a 50% matrigel mixture were inoculated subcutaneously on both flanks of 8 weeks old SCID Hairless Outbred (SHO) mice purchased from Charles River (Germany). […] The injections were repeated on day 3 and day 5. The sizes of the tumours were regularly measured using a caliper every 2 days. The tumour size of the treated mice was compared with that of the control group (7 untreated mice).
The days of dosing are indicated by vertical dashed lines.

[2] = system: STAT3 and STAT3-dependent genes; experiment: RT-PCR expression of STAT3 and STAT3-dependent genes in LPS-stimulated MDA-MB-231 cells; type: cell-based, human; settings: 25 μM, 8 hours, MDA-MB-231 stimulated with 500 μg/mL LPS
Procedure: Effect of Compounds of the Invention on Expression of STAT3 and STAT3-Dependent Genes.
To probe the STAT3-specific cytotoxicity of the mature ligands, the mRNA expression profile of STAT3 and some STAT3 target genes (i.e., bcl-2, cyclin D1, and fascin) were compared to the reference gene GAPDH using a RT-PCR assay. Initially, the MDA-MB-231 cells were stimulated with 500 μg/mL LPS for 24 hours at 37° C. Following this, the compounds were added at 25 μM to the cells and incubated for another 8 hours at 37° C. Finally, PCR was used to determine changes in the gene expression profiles between stimulated-untreated and stimulated-treated cells.

[3] = system: MDA-MB-231 breast (STAT3-dependent) cancer cell line; experiment: MTT cell viability assay, MDA-MB-231; type: cell-based, human; settings: MTT; 48 hours exposure (table title)
[4] = target: unphosphorylated STAT3 monomer (uSTAT3) SH2 domain (Homo sapiens, UniProt P40763); experiment: Fluorescence polarisation assay for the inhibition of STAT3 dimerisation; type: binding; settings: 350 nM uSTAT3, 10 nM FAM-pYLPQTV, 100 μM ligand; average of triplicate
[5] = system: MDA MB 231 tumours; experiment: Human tumour xenograft study; type: in vivo, SCID Hairless Outbred (SHO) mice
Procedure: In Vivo Evaluation of Compound 6 in a Human Tumour Xenograft Study
Therefore, it was decided to carry out a preliminary in vivo efficacy study in mice to evaluate the ability of the molecule to reduce the tumour volume in MDA MB 231 tumour bearing mice. The in vivo tumour xenograft study was carried out in SCID Hairless Outbred (SHO) mice, using an intravenous (IV) dosing regimen.
as §1

[6] = system: A4 (STAT3-null) cancer cell line; experiment: MTT cell viability assay, A4; type: cell-based; settings: exposure (table title)
[7] = system: STAT3 dependent cells; settings: STAT3 dependent cells as compared to STAT3-null cells; cited from earlier work
[8] = system: STAT3; experiment: STAT3 dimerization inhibition (unpublished results); settings: applicants' unpublished results
From the text: herein designated RH-06, was identified as being a novel small molecule inhibitor.

[9] = system: STAT3; settings: following IL-6 stimulation; cited from earlier work
[10] = 0.5 mg/Kg IV on days 1, 3 and 5

Chain of unphosphorylated STAT3 monomer (uSTAT3) SH2 domain (P40763 whole entry, the tested form may be a part): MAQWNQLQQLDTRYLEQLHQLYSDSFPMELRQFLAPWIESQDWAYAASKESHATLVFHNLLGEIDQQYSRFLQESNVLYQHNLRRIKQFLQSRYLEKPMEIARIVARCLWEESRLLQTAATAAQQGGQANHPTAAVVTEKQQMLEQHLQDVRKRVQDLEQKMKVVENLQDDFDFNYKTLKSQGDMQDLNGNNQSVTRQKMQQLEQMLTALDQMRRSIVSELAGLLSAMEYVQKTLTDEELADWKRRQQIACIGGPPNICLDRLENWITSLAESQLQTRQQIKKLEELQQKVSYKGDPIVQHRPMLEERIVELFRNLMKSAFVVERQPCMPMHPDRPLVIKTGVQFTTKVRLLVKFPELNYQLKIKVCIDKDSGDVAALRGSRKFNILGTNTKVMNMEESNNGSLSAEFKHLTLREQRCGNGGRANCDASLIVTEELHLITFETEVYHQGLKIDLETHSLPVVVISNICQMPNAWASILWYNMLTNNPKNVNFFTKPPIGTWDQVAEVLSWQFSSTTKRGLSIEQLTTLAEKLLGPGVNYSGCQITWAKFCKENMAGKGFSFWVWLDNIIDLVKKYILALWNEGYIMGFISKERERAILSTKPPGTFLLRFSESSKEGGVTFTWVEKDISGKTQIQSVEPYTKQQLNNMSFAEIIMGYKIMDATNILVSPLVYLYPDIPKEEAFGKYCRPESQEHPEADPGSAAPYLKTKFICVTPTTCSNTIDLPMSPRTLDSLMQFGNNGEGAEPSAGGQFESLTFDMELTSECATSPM

Compound: COC(=O)c1ccc(N(C)S(=O)(=O)c2cc(C(=O)NCc3ccc(CN4CCCCC4)cc3)sc2-c2ccnc(N3CCNCC3)c2)cc1 [Compound 6, methyl 4-((N-methyl-2-(2-(piperazin-1-yl)pyridin-4-yl)-5-((4-(piperidin-1-ylmethyl)benzyl)carbamoyl)thiophene)-3-sulfonamido)benzoate]
- organ changes after sacrifice [1, 10]: no organ changes were observed
- signs of toxicity [1, 10]: did not show any signs of toxicity
- weight of the treated mice [1, 10]: initially lost some weight post-treatment, but regained the weight after 14 days
- survival of treated mice ([1]; SCID Hairless Outbred (SHO), mouse, in vivo): ≥ 21 days
- Bcl-2 mRNA expression (RT-PCR) [2]: very weak expression
- STAT1 mRNA expression (RT-PCR) [2]: without showing any effect
- STAT3 mRNA expression (RT-PCR) [2]: Almost no expression
- cyclin D1 mRNA expression (RT-PCR) [2]: Almost no expression
- fascin mRNA expression (RT-PCR) [2]: Almost no expression
- house-keeping gene GAPDH mRNA expression (RT-PCR) [2]: without showing any effect
- IC50 (MDA-MB-231) [3]: sub-micromolar
- inhibition at 100 µM [4]: > 50%
- tumour volume compared to the control group ([5]; 0.5 mg/Kg IV (tail vein) on days 1, 3 and 5): significant reduction; also recorded: remained low and near the baseline
- tumour volume after dosing was stopped ([5]; after dosing stopped on day 5, 0.5 mg/Kg IV): no significant increase in tumour volume
- IC50 [6]: 73.2 µM

Compound: Cc1ccc(-c2sc(C(=O)NCc3cccs3)cc2S(=O)(=O)N2CCCC2)cc1 [RH-06]
- cytostatic effect [7]: selectively cytostatic
- inhibition at 100 µM [4]: 24.2%
- STAT3 dimerization [8]: inhibits STAT3 dimerization
- phosphorylation of STAT3 [9]: selectively inhibited phosphorylation of STAT3
